# Test results reported in patent publication EP2072050A1, “Compounds with anti-emetic effect” (Santhera Pharmaceuticals (Schweiz) AG, priority 2007, dated 2009).
# Values joined by “and” are separate entries in the source; they are usually repeats but may differ in a detail not shown here. Equal values may be shown once.
# Assays:
# [1] = tested on: cisplatin induced emesis in the ferret; experiment: cisplatin-induced emesis in the ferret; assay type: in vivo; conditions: for anti-emetic effect (in words): emesis model in the ferret, compound A 30 and 100 mg/kg, ondansetron 16 mg/kg; for Number of Emesis periods / Number of Retches / Number of Vomits: 3 h observation
# From the text: The preferred model to assess an anti emetic potential in animals is the cisplatin-induced emesis in the ferret in which the effects of 5HT3A and NK1 antagonists have been thoroughly investigated. The method, which detects antiemetic activity, follows that described by Gardner et al (Brit. J. Pharmacol., 116, 3158-3163, 1995).
# Sixty minutes before administration of the test substance, ferrets are placed in individual stainless steel cages (40 x 50 x 34 cm) with a grid floor. Then, the animals are challenged with cisplatin (10 mg/kg i.p.), and immediately observed over a 3-hour period for: • Number of ferrets showing retches and vomits; • Latency to first retching (h:min:s); • Latency to first vomiting (h:min:s); • Retching (number of retches); • Vomiting (number of vomits); • Number of emesis periods; • Mean duration of emesis periods (min:s); • Severe behavioral side effects. Retching is defined as a rhythmic respiratory movement against a closed glottis, while vomiting is defined as a forced expulsion of upper gastrointestinal contents.
# The assay as described above was used to evaluate the anti emetic effects of melanocortin-4 receptor antagonists.
# Eight ferrets were studied per group. The test substance was evaluated at two doses (30 and 100 mg/kg), administered p.o. 90 minutes before cisplatin, and compared with an appropriate vehicle control group (vehicle administered 90 minutes before cisplatin).
# Quantitative data was analyzed by comparing treated groups with vehicle control using unpaired Student's t tests.
# Comparison between treated groups and vehicle control was done using Mann-Whitney U tests.
# [2] = target: MC-4 receptor (Homo sapiens, UniProt P32245); experiment: block of the MC-4 receptor (internal finding, no method given)
# [3] = group mean (8 ferrets), Compound A 30 mg/kg p.o. 1.5 h before cisplatin 10 mg/kg i.p.
# [4] = group mean (8 ferrets), Compound A 100 mg/kg p.o. 1.5 h before cisplatin 10 mg/kg i.p.
# [5] = individual animal, Compound A 30 mg/kg p.o. 1.5 h before cisplatin 10 mg/kg i.p.
# [6] = individual animal, Compound A 100 mg/kg p.o. 1.5 h before cisplatin 10 mg/kg i.p.
# [7] = group mean (8 ferrets), Ondansetron 16 mg/kg p.o. 1 h before cisplatin 10 mg/kg i.p.
# [8] = individual animal, Ondansetron 16 mg/kg p.o. 1 h before cisplatin 10 mg/kg i.p.
# Chain of MC-4 receptor (P32245 whole entry): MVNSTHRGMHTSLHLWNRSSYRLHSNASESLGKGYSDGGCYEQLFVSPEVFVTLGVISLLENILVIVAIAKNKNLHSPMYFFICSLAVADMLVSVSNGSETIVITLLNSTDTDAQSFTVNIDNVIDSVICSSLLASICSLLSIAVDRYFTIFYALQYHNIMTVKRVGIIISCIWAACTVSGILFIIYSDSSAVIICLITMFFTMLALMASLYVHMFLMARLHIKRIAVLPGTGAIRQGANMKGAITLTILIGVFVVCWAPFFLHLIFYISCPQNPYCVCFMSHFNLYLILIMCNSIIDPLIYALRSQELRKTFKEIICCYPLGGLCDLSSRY
smiles,measurement,setting,value
CC[C@H](COc1cccnc1C1CCN(C(=O)[C@@H](Cc2ccc(Cl)cc2Cl)NC(=O)N2CCCC2)CC1)N1CCCC1 [Compound A],anti-emetic effect (in words),[1],pronounced anti-emetic properties
same,Number of Emesis periods,[1]; [3],6.4
same,Number of Retches,[1]; [3],64.4
same,Number of Vomits,[1]; [3],2.4
same,Number of Emesis periods,[1]; [4],2.3
same,Number of Retches,[1]; [4],19.9
same,Number of Vomits,[1]; [4],0.8
same,Number of Emesis periods,[1]; [5],14 and 4 and 7 and 0 (2×) and 3 and 13 and 10
same,Number of Retches,[1]; [5],156 and 26 and 90 and 0 (2×) and 41 and 118 and 84
same,Number of Vomits,[1]; [5],9 and 0 (3×) and 2 (2×) and 1 and 5
same,Number of Emesis periods,[1]; [6],5 and 0 (4×) and 1 and 8 and 4
same,Number of Retches,[1]; [6],28 and 0 (4×) and 10 and 83 and 38
same,Number of Vomits,[1]; [6],2 (3×) and 0 (5×)
"Cc1nccn1CC1CCc2c(c3ccccc3n2C)C1=O (stereo not shown) [Ondansetron, ondansetron, reference compound]",block of the MC-4 receptor,[2],doesn't block
same,separation between 5HT3 and MC-4,[2],more than 10000 fold
same,anti-emetic effect (in words),[1],clear anti-emetic effect
same,Number of Emesis periods,[1]; [7],5.0
same,Number of Retches,[1]; [7],41.1
same,Number of Vomits,[1]; [7],1.9
same,Number of Emesis periods,[1]; [8],0 (4×) and 14 (2×) and 3 and 9
same,Number of Retches,[1]; [8],0 (4×) and 113 and 26 and 56 and 134
same,Number of Vomits,[1]; [8],0 (5×) and 2 and 6 and 7
